Test results as given in patent US11591369B2, “Alpha(v)beta(6) integrin-binding peptides and methods of use thereof” (priority 2018, dated 2023).
Several values for one entry are separate records, joined by “and”; a condition that tells them apart may be missing. Identical values can stand only once. Like-named read-outs stand apart in the source and are kept apart here. Where a SMILES comes first, the peptide text is derived from it. Primed or numbered codes have the meaning given here. Where no end group is shown, it is not given here. The star is where a group is joined. (18F)FB″ = [18F]fluorobenzoyl, O=C(c1ccc([18F])cc1)*; Benzoyl(4-F) = O=C(c1ccc(F)cc1)*; FB = fluorobenzoyl

What was measured:
DX3puroβ6 (αvβ6+) cells = assay: [18F]-radiolabeled peptide cell binding and internalization, DX3puroβ6 (αvβ6+) cells; format: cell-based, human; settings: for binding to DX3puroβ6 (αvβ6+) cells: % of total activity, 37° C.
[1] = 37° C., 1 hour, radio-HPLC
αvβ6 integrin = molecular target: T1, αvβ6 integrin (Homo sapiens, UniProt P06756+P18564); assay: Competitive binding ELISA against biotinylated LAP (BtLAP), αvβ6 integrin
T1 construct: All purified integrins were purchased from R&D Systems (MN, USA); purchased R&D Systems (MN, USA)

[2] = Circular dichroism (CD) spectroscopy; format: physicochemical; settings: for % Helical Content CD Buffer: 25 mM phosphate + 100 mM NaF; for % Helical Content CD Buffer + 30% TFE: buffer with 30% trifluoroethanol

T1 sequence (P06756 31-992 limits assumed): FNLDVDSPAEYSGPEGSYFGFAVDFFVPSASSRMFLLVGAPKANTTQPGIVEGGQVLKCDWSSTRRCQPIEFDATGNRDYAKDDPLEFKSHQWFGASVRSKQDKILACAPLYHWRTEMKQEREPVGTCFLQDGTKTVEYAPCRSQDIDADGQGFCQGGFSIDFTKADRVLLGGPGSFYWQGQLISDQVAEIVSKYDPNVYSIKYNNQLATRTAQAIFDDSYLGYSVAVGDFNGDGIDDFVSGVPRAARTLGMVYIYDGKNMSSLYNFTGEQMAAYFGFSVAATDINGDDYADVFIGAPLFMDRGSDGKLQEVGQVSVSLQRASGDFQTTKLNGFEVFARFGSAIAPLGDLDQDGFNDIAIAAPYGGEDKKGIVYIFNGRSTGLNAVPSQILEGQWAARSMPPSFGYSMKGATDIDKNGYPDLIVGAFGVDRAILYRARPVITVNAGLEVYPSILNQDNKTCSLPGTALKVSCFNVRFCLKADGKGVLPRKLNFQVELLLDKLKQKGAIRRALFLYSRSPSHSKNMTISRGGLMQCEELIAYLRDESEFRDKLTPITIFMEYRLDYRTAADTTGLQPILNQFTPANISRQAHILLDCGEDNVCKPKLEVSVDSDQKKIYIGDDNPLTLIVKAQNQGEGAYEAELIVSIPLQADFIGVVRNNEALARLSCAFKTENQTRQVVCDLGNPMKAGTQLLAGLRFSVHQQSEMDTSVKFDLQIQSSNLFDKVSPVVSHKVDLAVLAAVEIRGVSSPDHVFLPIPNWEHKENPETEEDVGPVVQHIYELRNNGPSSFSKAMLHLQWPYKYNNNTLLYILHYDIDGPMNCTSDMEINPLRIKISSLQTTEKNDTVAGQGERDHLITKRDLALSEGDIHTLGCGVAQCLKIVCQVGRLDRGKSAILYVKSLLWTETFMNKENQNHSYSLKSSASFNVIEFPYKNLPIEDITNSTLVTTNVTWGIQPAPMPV
T1 sequence (P18564 22-707 limits assumed): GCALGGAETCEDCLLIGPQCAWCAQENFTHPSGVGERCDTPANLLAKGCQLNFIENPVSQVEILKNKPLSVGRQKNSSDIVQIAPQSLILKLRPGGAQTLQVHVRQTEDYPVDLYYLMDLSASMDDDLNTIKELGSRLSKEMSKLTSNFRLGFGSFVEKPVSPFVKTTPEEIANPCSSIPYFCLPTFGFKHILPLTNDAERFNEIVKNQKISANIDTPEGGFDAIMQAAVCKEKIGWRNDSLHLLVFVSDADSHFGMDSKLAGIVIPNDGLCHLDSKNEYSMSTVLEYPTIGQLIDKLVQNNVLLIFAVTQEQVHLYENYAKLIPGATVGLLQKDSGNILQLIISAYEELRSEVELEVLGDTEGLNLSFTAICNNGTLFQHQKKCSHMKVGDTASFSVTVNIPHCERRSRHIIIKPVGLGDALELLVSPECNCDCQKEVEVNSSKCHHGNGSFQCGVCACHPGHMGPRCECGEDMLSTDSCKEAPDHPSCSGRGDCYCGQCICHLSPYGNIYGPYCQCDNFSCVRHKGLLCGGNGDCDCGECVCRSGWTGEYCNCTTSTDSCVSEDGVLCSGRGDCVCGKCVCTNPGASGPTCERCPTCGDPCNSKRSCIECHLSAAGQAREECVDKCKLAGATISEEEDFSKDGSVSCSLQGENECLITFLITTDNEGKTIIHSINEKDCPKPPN

CC(C)C[C@H](NC(=O)[C@H](Cc1ccc(O)cc1)NC(=O)[C@@H](NC(=O)[C@H](CC(C)C)NC(=O)[C@H](CC(=O)O)NC(=O)CNC(=O)[C@@H](NC(=O)CCOCCOCCOCCOCCOCCOCCOCCOCCOCCOCCOCCOCCOCCOCCOCCOCCOCCOCCOCCOCCOCCOCCOCCOCCOCCOCCOCCOCCNC(=O)c1ccc(F)cc1)C(C)C)[C@@H](C)O)C(=O)N[C@@H](CCCCN)C(=O)N[C@@H](CCC(N)=O)C(=O)N[C@@H](CCCCN)C(=O)N[C@H](C(=O)N[C@@H](C)C(=O)N[C@@H](CCCNC(=N)N)C(=O)N[C@H](C(=O)NCCOCCOCCOCCOCCOCCOCCOCCOCCOCCOCCOCCOCCOCCOCCOCCOCCOCCOCCOCCOCCOCCOCCOCCOCCOCCOCCOCCOCCC(N)=O)[C@@H](C)O)C(C)C [N-[^18F]T1-e]
percent internalized relative to the amount bound to DX3puroβ6 (αvβ6+) cells (DX3puroβ6 (αvβ6+) cells; 1 hour): 25.7±2.2% and 25.7±2.7% | binding to DX3puroβ6 (αvβ6+) cells (DX3puroβ6 (αvβ6+) cells; 1 hour): 1.5±0.1% | intact peptide in mouse serum [1]: > 99% | intact peptide in mouse serum ([1]; 60 min): 100%

CC(C)C[C@H](NC(=O)[C@H](CO)NC(=O)[C@H](CC(=O)O)NC(=O)[C@H](CC(C)C)NC(=O)[C@H](CC(=O)O)NC(=O)[C@@H](NC(=O)[C@H](CCCNC(=N)N)NC(=O)c1ccc(F)cc1)[C@@H](C)O)C(=O)N[C@@H](CCCNC(=N)N)C(=O)N[C@H](C(N)=O)[C@@H](C)O [RTD-9mer, reference compound]
IC50 (αvβ6 integrin): 22 ± 3 nM | DX3puroβ6 (αvβ6+)/DX3puro (αvβ6−) selectivity ratio (DX3puroβ6 (αvβ6+) cells; cell binding, 1 hour): 1.7±0.2 :1 | % Helical Content CD Buffer [2]: 2.7% | % Helical Content CD Buffer + 30% TFE [2]: 2.1%

CC(C)C[C@H](NC(=O)[C@H](CO)NC(=O)[C@H](CC(=O)O)NC(=O)[C@H](CC(C)C)NC(=O)[C@H](CC(=O)O)NC(=O)[C@@H](NC(=O)[C@H](CCCNC(=N)N)NC(=O)c1ccc(F)cc1)[C@@H](C)O)C(=O)N[C@@H](CCCNC(=N)N)C(=O)N[C@@H](CCC(N)=O)C(=O)N[C@@H](CCCCN)C(=O)N[C@H](C(=O)N[C@@H](C)C(=O)N[C@@H](CCCNC(=N)N)C(=O)N[C@H](C(N)=O)[C@@H](C)O)C(C)C [RTD-14mer] ({Benzoyl(4-F)}-RTDLDSLRQKVART-NH2)
IC50 (αvβ6 integrin): 0.4 ± 0.1 nM | DX3puroβ6 (αvβ6+)/DX3puro (αvβ6−) selectivity ratio (DX3puroβ6 (αvβ6+) cells): 9.1±0.8 :1 | % Helical Content CD Buffer [2]: 18.1% | % Helical Content CD Buffer + 30% TFE [2]: 26.2%

CC(C)C[C@H](NC(=O)[C@H](CCCNC(=N)N)NC(=O)CNC(=O)[C@H](CC(C)C)NC(=O)[C@H](CC(=O)O)NC(=O)CNC(=O)[C@H](CCCNC(=N)N)NC(=O)CNC(=O)c1ccc(F)cc1)C(N)=O [SFLAP3-8mer, reference compound] ({Benzoyl(4-F)}-GRGDLGRL-NH2)
IC50 (αvβ6 integrin): 89 ± 6.5 nM | DX3puroβ6 (αvβ6+)/DX3puro (αvβ6−) selectivity ratio (DX3puroβ6 (αvβ6+) cells; cell binding, 1 hour): 1.4 ± 0.2:1 | % Helical Content CD Buffer [2]: 11% | % Helical Content CD Buffer + 30% TFE [2]: 6.2%

CC(C)C[C@H](NC(=O)[C@H](CC(=O)O)NC(=O)CNC(=O)[C@H](CCCNC(=N)N)NC(=O)CNC(=O)c1ccc(F)cc1)C(=O)NCC(=O)N[C@@H](CCCNC(=N)N)C(=O)N[C@@H](CC(C)C)C(=O)N[C@@H](C)C(=O)N[C@@H](CCC(N)=O)C(=O)N[C@@H](CCCCN)C(=O)N[C@H](C(=O)N[C@@H](C)C(=O)N[C@@H](CCCNC(=N)N)C(=O)N[C@H](C(N)=O)[C@@H](C)O)C(C)C [SFLAP3-15mer] ({Benzoyl(4-F)}-GRGDLGRLAQKVART-NH2)
IC50 (αvβ6 integrin): 1.3 ± 0.2 nM | DX3puroβ6 (αvβ6+)/DX3puro (αvβ6−) selectivity ratio (DX3puroβ6 (αvβ6+) cells; cell binding, 1 hour): 3.9 ± 0.4:1 | % Helical Content CD Buffer [2]: 13.4% | % Helical Content CD Buffer + 30% TFE [2]: 31.6%

CC(C)C[C@H](NC(=O)[C@H](Cc1ccc(O)cc1)NC(=O)[C@@H](NC(=O)[C@H](CC(C)C)NC(=O)[C@H](CC(=O)O)NC(=O)CNC(=O)[C@@H](NC(=O)CCOCCOCCOCCOCCOCCOCCOCCOCCOCCOCCOCCOCCOCCOCCOCCOCCOCCOCCOCCOCCOCCOCCOCCOCCOCCOCCOCCOCCNC(=O)c1ccc(F)cc1)C(C)C)[C@@H](C)O)C(=O)N[C@@H](CCCCN)C(=O)N[C@@H](CCC(N)=O)C(=O)N[C@@H](CCCCN)C(=O)N[C@H](C(=O)N[C@@H](C)C(=O)N[C@@H](CCCNC(=N)N)C(=O)N[C@H](C(=O)NCCOCCOCCOCCOCCOCCOCCOCCOCCOCCOCCOCCOCCOCCOCCOCCOCCOCCOCCOCCOCCOCCOCCOCCOCCOCCOCCOCCOCCC(N)=O)[C@@H](C)O)C(C)C [T1-e]
fold drop in affinity for αvβ6 (αvβ6 integrin; compared to T1): 39 fold

CC(C)C[C@H](NC(=O)[C@H](Cc1ccc(O)cc1)NC(=O)[C@@H](NC(=O)[C@H](CC(C)C)NC(=O)[C@H](CC(=O)O)NC(=O)CNC(=O)[C@@H](NC(=O)c1ccc(CNC(=O)CCOCCOCCOCCOCCOCCOCCOCCOCCOCCOCCOCCOCCOCCOCCOCCOCCOCCOCCOCCOCCOCCOCCOCCOCCOCCOCCOCCOCCNC(=O)c2ccc(F)cc2)cc1)C(C)C)[C@@H](C)O)C(=O)N[C@@H](CCCCN)C(=O)N[C@@H](CCC(N)=O)C(=O)N[C@@H](CCCCN)C(=O)N[C@H](C(=O)N[C@@H](C)C(=O)N[C@@H](CCCNC(=N)N)C(=O)N[C@H](C(=O)NCCOCCOCCOCCOCCOCCOCCOCCOCCOCCOCCOCCOCCOCCOCCOCCOCCOCCOCCOCCOCCOCCOCCOCCOCCOCCOCCOCCOCCC(N)=O)[C@@H](C)O)C(C)C [T1-g]
fold higher binding to αvβ6-integrin (αvβ6 integrin; ELISA, compared to T1-e): 2 fold

CC(C)C[C@H](NC(=O)[C@H](Cc1ccc(O)cc1)NC(=O)[C@@H](NC(=O)[C@H](CC(C)C)NC(=O)[C@H](CC(=O)O)NC(=O)CNC(=O)[C@@H](NC(=O)c1ccc(F)cc1)C(C)C)[C@@H](C)O)C(=O)N[C@@H](CCCCN)C(=O)N[C@@H](CCC(N)=O)C(=O)N[C@@H](CCCCN)C(=O)N[C@H](C(=O)N[C@@H](C)C(=O)N[C@@H](CCCNC(=N)N)C(=O)N[C@H](C(=O)NCCOCCOCCOCCOCCOCCOCCOCCOCCOCCOCCOCCOCCOCCOCCOCCOCCOCCOCCOCCOCCOCCOCCOCCOCCOCCOCCOCCOCCC(N)=O)[C@@H](C)O)C(C)C [T1]
DX3puroβ6 (αvβ6+)/DX3puro (αvβ6−) selectivity ratio (DX3puroβ6 (αvβ6+) cells): 41.7±5.3 :1 | binding to DX3puroβ6 (αvβ6+) cells (DX3puroβ6 (αvβ6+) cells; 1 hour): 18.1±0.8% | intact peptide in mouse serum [1]: 61%

FB-RGDLQVLA ({FB}-RGDLQVLA) [A20-8mer, reference compound]
DX3puroβ6 (αvβ6+)/DX3puro (αvβ6−) selectivity ratio (DX3puroβ6 (αvβ6+) cells; cell binding, 1 hour): 7.8±0.5 :1 | % Helical Content CD Buffer [2]: 6.7% | % Helical Content CD Buffer + 30% TFE [2]: 6.9%

FB-RGDLQVLAQKVART [A20-14mer, reference compound]
DX3puroβ6 (αvβ6+)/DX3puro (αvβ6−) selectivity ratio (DX3puroβ6 (αvβ6+) cells; cell binding, 1 hour): 8.4±0.4 :1 | % Helical Content CD Buffer [2]: 15.1% | % Helical Content CD Buffer + 30% TFE [2]: 35.7%

RGDLADLRK([^18F]FB) (RGDLADLRK((18F)FB″)) [[^18F]P3]
percent internalized relative to the amount bound to DX3puroβ6 (αvβ6+) cells (DX3puroβ6 (αvβ6+) cells; 1 hour): 4.3±0.6% | binding to DX3puroβ6 (αvβ6+) cells (DX3puroβ6 (αvβ6+) cells; 1 hour): 10.8±1.4% | intact peptide in mouse serum [1]: 0%
